From the supplement of paper PMC10307832

How the values were obtained:
Assay in all cases: relative viability (nuclei count vs DMSO), 5 days (fraction); higher = more cells survive
RAF265 + Pictilisib = compound: Cn1c(Nc2ccc(C(F)(F)F)cc2)nc2cc(Oc3ccnc(-c4ncc(C(F)(F)F)[nH]4)c3)ccc21 [RAF265] + CS(=O)(=O)N1CCN(Cc2cc3nc(-c4cccc5[nH]ncc45)nc(N4CCOCC4)c3s2)CC1 [Pictilisib] (partner 1 µM)
In short: (§1)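 Lung cancer cell lines were pin-tool dosed in 1536-well plates on the day after seeding, with either a lone drug or a fixed anchor-drug dose plus five library-drug doses (not always all listed) in √10 steps. Nuclei were counted on 4× images after 5 days. Relative viability is the ratio of treated-well to vehicle-well nuclei counts, with each value a median of duplicate plates.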

Doramapimod + Olaparib = compound: Cc1ccc(-n2nc(C(C)(C)C)cc2NC(=O)Nc2ccc(OCCN3CCOCC3)c3ccccc23)cc1 [Doramapimod] + O=C(c1cc(Cc2n[nH]c(=O)c3ccccc23)ccc1F)N1CCN(C(=O)C2CC2)CC1 [Olaparib] (partner 8 µM)
In short: as §1

Doramapimod + OSI-027 = compound: Cc1ccc(-n2nc(C(C)(C)C)cc2NC(=O)Nc2ccc(OCCN3CCOCC3)c3ccccc23)cc1 [Doramapimod] + COc1cccc2cc(-c3nc([C@H]4CC[C@H](C(=O)O)CC4)n4ncnc(N)c34)[nH]c12 [OSI-027] (partner 0.5 µM)
In short: as §1

RAF265 + Olaparib = compound: Cn1c(Nc2ccc(C(F)(F)F)cc2)nc2cc(Oc3ccnc(-c4ncc(C(F)(F)F)[nH]4)c3)ccc21 [RAF265] + O=C(c1cc(Cc2n[nH]c(=O)c3ccccc23)ccc1F)N1CCN(C(=O)C2CC2)CC1 [Olaparib] (partner 8 µM)
In short: as §1

| Cell Line | relative viability (RAF265 + Pictilisib; first compound 0.01 µM) | relative viability (RAF265 + Pictilisib; first compound 0.03162 µM) | relative viability (RAF265 + Pictilisib; first compound 0.1 µM) | relative viability (RAF265 + Pictilisib; first compound 0.3162 µM) | relative viability (RAF265 + Pictilisib; first compound 1 µM) | relative viability (Doramapimod + Olaparib; first compound 0.02 µM) | relative viability (Doramapimod + Olaparib; first compound 0.06325 µM) | relative viability (Doramapimod + Olaparib; first compound 0.2 µM) | relative viability (Doramapimod + Olaparib; first compound 0.6325 µM) | relative viability (Doramapimod + Olaparib; first compound 2 µM) | relative viability (Doramapimod + OSI-027; first compound 0.02 µM) | relative viability (Doramapimod + OSI-027; first compound 0.06325 µM) | relative viability (Doramapimod + OSI-027; first compound 0.2 µM) | relative viability (Doramapimod + OSI-027; first compound 0.6325 µM) | relative viability (Doramapimod + OSI-027; first compound 2 µM) | relative viability (RAF265 + Olaparib; first compound 0.01 µM) | relative viability (RAF265 + Olaparib; first compound 0.03162 µM) | relative viability (RAF265 + Olaparib; first compound 0.1 µM) | relative viability (RAF265 + Olaparib; first compound 0.3162 µM) | relative viability (RAF265 + Olaparib; first compound 1 µM) |
| --- | --- | --- | --- | --- | --- | --- | --- | --- | --- | --- | --- | --- | --- | --- | --- | --- | --- | --- | --- | --- |
| LCLC-103H | 0.616 | 0.615 | 0.638 | 0.431 | 0.422 | 0.741 | 0.786 | 0.745 | 0.758 | 0.764 | 0.444 | 0.424 | 0.386 | 0.422 | 0.396 | 0.759 | 0.717 | 0.75 | 0.595 | 0.444 |
| NCI-H460 | 0.5 | 0.455 | 0.403 | 0.201 | 0.179 | 0.453 | 0.431 | 0.422 | 0.459 | 0.419 | 0.612 | 0.721 | 0.658 | 0.753 | 0.585 | 0.444 | 0.426 | 0.491 | 0.411 | 0.28 |
| NCI-H1755 | 0.47 | 0.287 | 0.264 | 0.238 | 0.148 | 0.865 | 0.85 | 0.847 | 0.811 | 0.829 | 0.709 | 0.659 | 0.727 | 0.669 | 0.586 | 0.879 | 0.788 | 0.909 | 0.717 | 0.499 |
| NCI-H358 | 0.398 | 0.298 | 0.28 | 0.261 | 0.249 | 0.54 | 0.565 | 0.516 | 0.676 | 0.511 | 0.746 | 0.699 | 0.634 | 0.858 | 0.681 | 0.749 | 0.489 | 0.403 | 0.286 | 0.16 |
| NCI-H1734 | 0.479 | 0.334 | 0.438 | 0.276 | 0.228 | 0.572 | 0.595 | 0.587 | 0.573 | 0.497 | 0.55 | 0.508 | 0.537 | 0.589 | 0.448 | 0.627 | 0.574 | 0.575 | 0.511 | 0.344 |
| EPLC-272H | 0.35 | 0.349 | 0.311 | 0.237 | 0.191 | 0.732 | 0.766 | 0.726 | 1.03 | 0.717 | 0.32 | 0.297 | 0.306 | 0.316 | 0.295 | 0.685 | 0.499 | 0.428 | 0.209 | 0.161 |
| NCI-H2126 | 0.5 | 0.491 | 0.491 | 0.405 | 0.415 | 0.768 | 0.925 | 0.989 | 0.962 | 0.94 | 0.79 | 0.689 | 0.631 | 0.71 | 0.58 | 0.942 | 0.907 | 0.901 | 0.818 | 0.724 |
